# From patent publication US12491253B2, “Bicyclic peptide ligands specific for MT1-MMP” (BicycleRD Limited, priority 2018, dated 2025)
# Biological target: MT1-MMP hemopexin domain (Homo sapiens, UniProt P50281)
# Conditions: Human MT1-MMP FP direct binding; fluoresceinated bicyclic peptide titrated with hemopexin domain; molecular scaffold TBMB
# Experimental: Direct Binding Fluorescence Polarisation or Anisotropy Assays are performed by titrating a constant concentration of fluorescent tracer (here, the fluoresceinated bicyclic peptide to be studied) with its binding partner (here, the MT1-MMP hemopexin domain). As the concentration of binding partner increases during the titration, the polarisation signal changes in proportion to the fraction of bound and unbound material. This allows determination of […] (Kd) quantitatively. Assay data can be fit using standard ligand binding equations.
# The titrant (binding partner) concentration is varied from 0.1 nM up to typically 5 μM. The range is chosen such that the maximum change in fluorescent polarisation can be observed. Buffers employed are phosphate buffered saline in the presence of 0.01% Tween. Experiments were run in black 384 well low-bind/low volume plates (Corning 3820), and the fluorescent polarisation signal was measured using a BMG Pherastar FS plate reader. […] Fluoresceination may be performed on the N-terminal amino group of the peptide, which is separated from the bicycle core sequence by a sarcosine spacer (usually Sar5). This can be done during Fmoc solid phase synthesis or post-synthetically (after cyclisation with TBMB and purification) if the N-terminal amino group is unique to the peptide. Fluoresceination can also be performed on the C-terminus, usually on a Lysine introduced as the first C-terminal residue, which is then separated from the bicycle core sequence by a sarcosine spacer (usually Sar6). Thus, N-terminal tracers can have a molecular format described as Fluo-Gly-Sar6-A (BicycleCoreSequence), and (BicycleCoreSequence)-A-Sar6-K(Fluo) for a C-terminally fluoresceinated construct.
# Fluorescent tracers used in the Examples include BCY1323-Sar6-K(FI), BCY1326-Sar6-K(FI), BCY3418-Sar6-K(FI), BCY3422-K(FI), and BCY1329-Sar6-K(FI).
substance,measurement,value
"fluoresceinated bicyclic peptide tracer on TBMB, used as BCY1326-Sar6-K(FI); sequence not given",Kd,218 nM
"fluoresceinated bicyclic peptide tracer on TBMB, used as BCY1329-Sar6-K(FI); sequence not given",Kd,22.1 ± 11 nM
"fluoresceinated bicyclic peptide tracer on TBMB, used as BCY1323-Sar6-K(FI); sequence not given",Kd,35.9 ± 6.65 nM
